Source: patent US20040076663A1, “Complexed-acidic-phospholipid-collagen composites for bone induction” (priority 2002, published 2004)

Test system: human osteoblast-like cells, MG-63
Assay: Cell binding to complexed acidic phospholipid collagen composite (cell adherence and proliferation)
Assay type: cell-based
Conditions: MG-63 cell cultures; composite sterilized under UV light
From the text: Before usage, the prepared composite was sterilized under UV light.

fibronectin
cell adherence and proliferation: some cells remain in clumps and there appeared to be fewer cells that adhered compared to those exposed to either of the composite formulations
